Measurements reported in PubChem BioAssay (NCI).
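Results reflect a 48-hour exposure of cells in 96-well plates to compound at five concentrations. The concentration for full growth arrest is given as TGI.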

Tests used:
Test in all cases: DTP human tumour cell line panel, 48 h
[1] = system: MOLT-4 leukemia
[2] = system: 786-0 renal
[3] = system: MCF7 breast
[4] = system: MDA-N
[5] = system: HCC-2998 colon
[6] = system: KM12 colon
[7] = system: SK-MEL-2 melanoma
[8] = system: HOP-62 NSCLC
[9] = system: LOX IMVI melanoma
[10] = system: HT29 colon
[11] = system: A549 NSCLC
[12] = system: BT-549 breast
[13] = system: PC-3 prostate
[14] = system: CCRF-CEM leukemia
[15] = system: HCT-116 colon
[16] = system: OVCAR-3 ovarian
[17] = system: RPMI-8226 leukemia

SMILES	TGI [1] [µM]	TGI [2] [µM]	TGI [3] [µM]	TGI [4] [µM]	TGI [5] [µM]	TGI [6] [µM]	TGI [7] [µM]	TGI [8] [µM]	TGI [9] [µM]	TGI [10] [µM]	TGI [11] [µM]	TGI [12] [µM]	TGI [13] [µM]	TGI [14] [µM]	TGI [15] [µM]	TGI [16] [µM]	TGI [17] [µM]
CCOC(=O)CCC(NC(=O)c1ccc(Nc2nc3ccccc3n3cccc23)cc1)C(=O)OCC (configuration not stated)	82.8	33.2	> 100	> 100	> 100	> 100	39.7	54.2	> 100	> 100	> 100	77.3	34.5	> 100	> 100	44.6	> 100
CN(C)/C=C(\C(=O)c1ccccc1)n1nc(-c2ccccc2)cc1-c1ccccc1	> 10	> 10	> 10	> 10	> 10	> 10	> 10	> 10	> 10	> 10	> 10	> 10	> 10	> 10	> 10	> 10	> 10
C/C=C/C(C#N)(Cc1ccccc1)OP1(=O)OC(c2ccccc2)C(C)N1C (configuration not stated)	78.4	> 100	> 100	> 100	> 100	> 100	> 100	> 100	> 100	> 100	> 100	> 100	> 100	41.2	> 100	> 100	> 100
CCN(CC)CCn1c2cc3c(cc2c(=O)c2cccnc21)OCO3	> 10	> 10	> 10	> 10	> 10	> 10	> 10	> 10	> 10	> 10	> 10	> 10	> 10	> 10	> 10	> 10	> 10
COc1ccc2c(c1)CC[C@@H]1[C@@H]2CC[C@]2(C)C(=O)/C(=C/c3ccncc3)C[C@@H]12	> 100	> 100	> 100	> 100	75.4	73.9	60.1	54.9	> 100	> 100	> 100	> 100	> 100	> 100	> 100	44.2	> 100
O=C(Nc1sccc1S(=O)(=O)c1ccc(Cl)cc1)C(F)(F)F	41.1	> 100	> 100	77.3	> 100	61.4	48.4	> 100	> 100	> 100	> 100	> 100	> 100	–	37	> 100	31.4
CCO/C=N/C1=C(C#N)C(c2ccc(Cl)cc2)c2c(-c3ccccc3)nn(-c3ccccc3)c2O1 (configuration not stated)	> 100	32.2	25	45.8	> 38.9	18.7	34.8	86.5	31	64.9	21.5	31.5	22.7	> 100	> 47.9	> 45.2	> 100
CC1=C(C#N)C2C(=C(N)Oc3ccccc32)C(N)=N1 (configuration not stated)	> 100	60.9	62.9	> 100	69.8	71.2	> 100	> 100	81.7	87.7	> 100	93.5	> 100	> 100	> 100	> 100	77.3
OCc1ccc2c(c1)CC1(C2)Cc2cc3c(cc2C1)CCC3	> 100	> 100	> 100	1.74	> 100	> 100	> 100	> 46.5	> 100	> 100	> 100	> 100	> 34.6	> 100	> 100	> 100	> 100
Cc1c2cccc-2ccc2c1[nH]c1ccc(Br)cc12	–	27.5	19.8	18.8	49.3	7.08	17.9	20.1	15	27.9	17.5	20.7	14.2	90.9	17.2	13.9	10.2
O=C1CSC(c2ccc(Cl)cc2)N1c1ccc(-c2ccc(-n3c(-c4ccccc4)nc4ccccc4c3=O)cc2)cc1 (configuration not stated)	83.6	> 100	> 100	> 100	> 100	> 100	> 100	> 100	45.2	41.5	> 100	> 100	> 100	> 100	> 100	> 100	> 100
O=C1C[C@@H](Sc2ccccc2)C2(OCCO2)[C@H]2ON3CCC[C@@H]3[C@@H]12	8.7	4.83	17.2	6.97	20.8	18.4	13.3	13.8	11.8	2.86	26.3	18.9	20.6	5.72	2.99	9.15	8.94
CN1C(=O)c2c(c3c4ccccc4n(C4OC(CO)C(O)C(O)C4O)c3c3[nH]c4ccccc4c23)C1=O (configuration not stated)	3.57	7.31	18.7	7.24	7.72	11.3	4.72	9.51	5.49	9.52	29.6	33.8	9.62	1.68	2.88	5.37	59.8
COc1cc2nc(-c3ccccc3F)[nH]c(=O)c2cc1OC	> 100	> 100	> 100	> 100	> 100	> 100	> 100	> 100	> 100	> 100	> 100	> 100	> 100	> 100	> 100	> 100	> 100
NNc1ccccc1Cl	> 100	> 100	> 100	> 100	> 100	> 100	> 100	> 100	> 100	> 100	> 100	> 100	> 100	> 100	> 100	> 100	> 100
C[C@]12CC[C@H](O)C=C1CC[C@@H]1[C@@H]2CC[C@]2(C)C(=N/O)/C(=C/c3ccncc3)C[C@@H]12	> 100	25.5	16.7	44	12.5	> 100	22.6	30.9	> 100	18.9	29.8	81.5	14.6	32.9	18.7	19.1	19.9
COC(=O)[C@@H]1C2OC(C)(C)OC2CN1C(=O)OCc1ccccc1 (some centres not stated)	> 100	> 100	> 100	> 100	> 100	> 100	> 100	> 100	> 100	> 100	> 100	> 100	> 100	–	> 100	> 100	> 100
N#Cc1c(N)c2c(c(-c3ccccc3)c1-c1ccccc1)C(=O)N(NC(=O)c1ccccc1)C2=O	> 100	> 100	> 100	> 100	> 100	> 100	> 100	–	> 100	–	> 100	> 100	> 100	> 100	> 100	> 100	> 100
Cc1cc(S(=O)(=O)n2ccnc2Oc2ccccc2)c(SSc2cc(Cl)c(C)cc2S(=O)(=O)n2ccnc2Oc2ccccc2)cc1Cl	–	> 100	> 100	> 100	> 100	> 100	> 100	–	> 100	> 100	> 100	> 100	> 100	–	> 100	> 100	> 100
CCN(CC)CCOC(=O)CCN1CC2CCC(CC2)C1	> 100	> 100	> 100	> 100	> 100	> 100	> 100	–	> 100	> 100	> 100	> 100	> 100	> 100	> 100	> 100	> 100
COc1ccc(N2C(=O)c3cccnc3S2(=O)=O)cc1	> 100	> 100	> 100	> 100	> 100	> 100	> 100	> 100	–	> 100	> 100	> 100	> 100	> 100	> 100	> 100	> 100
